Laboratory results published in patent publication US8329704B2, “Substituted pyrazinone derivatives for use in MCH-1 mediated diseases” (Janssen Pharmaceutica, N.V., priority 2005, dated 2012).

Legend:
MCH-1 receptor = target: T1, MCH-1 receptor (Rattus norvegicus, UniProt P97639); conditions: rodents tests; Nat. Med. (2002) 8, 825-830; cited from earlier work
T1 construct: host or cells: rodents in vivo

human MCH-1 receptor = target: T2, human MCH-1 receptor (Homo sapiens, UniProt Q99705); experiment: Ca2+ mobilization experiment for the MCH-1 receptor (FLIPR), inhibition of MCH-induced Ca2+ mobilization; format: cell-based; conditions: CHO cells stably expressing human MCH-1 receptor, inhibition of MCH-induced Ca2+ response, read-out: MCH-1 pIC50 (converted)
T2 construct: expressed in transfected cells
T2 sequence (Q99705 whole entry): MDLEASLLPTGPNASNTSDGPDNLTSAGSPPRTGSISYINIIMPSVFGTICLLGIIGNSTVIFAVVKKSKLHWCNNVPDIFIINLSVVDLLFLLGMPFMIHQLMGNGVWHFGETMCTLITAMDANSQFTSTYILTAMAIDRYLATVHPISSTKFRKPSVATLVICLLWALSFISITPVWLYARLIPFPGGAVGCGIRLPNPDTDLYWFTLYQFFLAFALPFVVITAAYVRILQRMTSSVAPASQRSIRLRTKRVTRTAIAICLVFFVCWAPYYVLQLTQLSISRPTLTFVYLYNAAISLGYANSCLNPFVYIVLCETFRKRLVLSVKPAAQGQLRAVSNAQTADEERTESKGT
In short: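 Calcium-dye loading (kit with probenecid) of CHO cells stably expressing human MCH-1 ran 90 min at 37C. Cells were then preincubated with compound for 20 min at RT before a submaximal MCH challenge, and Ca2+ was recorded by FLIPR. Responses were expressed as % of compound-free response, and pIC50 came from sigmoidal fits.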

T1 sequence (P97639 whole entry): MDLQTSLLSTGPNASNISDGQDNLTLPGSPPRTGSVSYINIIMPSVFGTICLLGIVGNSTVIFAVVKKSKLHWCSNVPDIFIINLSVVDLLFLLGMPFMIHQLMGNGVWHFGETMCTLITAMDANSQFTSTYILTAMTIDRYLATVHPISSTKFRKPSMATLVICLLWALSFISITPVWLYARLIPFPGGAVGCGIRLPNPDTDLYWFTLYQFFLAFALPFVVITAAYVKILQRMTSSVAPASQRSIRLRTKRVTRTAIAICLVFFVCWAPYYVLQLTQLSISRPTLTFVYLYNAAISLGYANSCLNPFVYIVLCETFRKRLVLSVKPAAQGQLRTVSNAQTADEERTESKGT

Row | SMILES | IC50 (human MCH-1 receptor) [nM] | melting point [°C] | antidepressant- and anxiolytic-like effects (MCH-1 receptor)
1 | COCC1=C(C(=O)OC)[C@H](c2ccc(F)c(F)c2)N(C(=O)NCCCN2CCC(c3cccc(NC(C)=O)c3)CC2)C(=O)N1 [SNAP-7941] |  |  | antidepressant- and axiolytic-like affects
2 | O=c1c(NCCOc2ccccc2)nccn1-c1ccc(OCCN2CCOCC2)cc1 [1-44] | 501 | 138.1 | 
3 | COc1cc(-n2ccnc(SCCc3ccccc3)c2=O)ccc1NC(=O)CN1CCCC1 [6-18] | 316 | > 300 | 
4 | CNC1CCN(c2ccc(-n3ccnc(SCCc4ccccc4)c3=O)cc2OC)C1 (centres unmarked) [6-04] | 25.1 | 113.2 | 
5 | COc1cc(-n2ccnc(SCCc3ccccc3)c2=O)ccc1N1CCC(N(C)C)C1 (centres unmarked) [6-07] | 20 | 126.5 | 
6 | COc1cc(-n2ccnc(NCCc3ccccc3)c2=O)ccc1OC1CCNC1 (centres unmarked) [3-31] | 39.8 | 151.6 | 

Now from value to molecule, other results behind:

Row | IC50 (human MCH-1 receptor) [nM] | melting point [°C] | SMILES | antidepressant- and anxiolytic-like effects (MCH-1 receptor)
7 | 20 | 177 | O=c1c(NCCc2ccccc2)nccn1CCc1ccc(CN2CCCC2)cc1 [9-01] | 
8 | 50.1 | 121.8 | CC(=O)N1CCN(CCOc2ccc(-n3ccnc(NCCc4ccccc4)c3=O)cc2Cl)CC1 [3-83] | 
9 | 63.1 | > 300 | COc1cc(-n2ccnc(NCCc3ccccc3)c2=O)ccc1NCCCN1CCOCC1 [3-30] | 
